{
  "source": "patent US20150105252A1",
  "about": "“SUBSTITUTED PYRAZOLES AS HERBICIDES” (E I DU PONT DE NEMOURS AND COMPANY, priority 2013, published 2015)",
  "key": {"nutsedge, yellow": {"tested_on": "nutsedge, yellow", "test": "Test C preemergence", "assay_type": "in vivo, Cyperus esculentus", "outline": "(§1)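 Greenhouse pot test: preemergence application onto freshly seeded loam/sand mix, postemergence application onto seedlings (1–4 leaves, 2–18 cm) in peat-vermiculite substrate. Responses scored visually 13 to 15 days later relative to controls, where 0 means no effect and 100 means complete control; a dash indicates no result.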"}, "pigweed": {"tested_on": "pigweed", "test": "Test A postemergence", "assay_type": "in vivo, Amaranthus retroflexus", "conditions": "Postemergence", "outline": "(§2)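 After sowing in a sand–loam mix, pots received compound preemergence by directed soil spray, or postemergence once plants reached the one- to two-leaf stage (2–10 cm). Formulation contained surfactant in a non-phytotoxic solvent. Injury was scored visually after ~10 greenhouse days, 0–100 scale.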"}, "lambsquarters": {"tested_on": "lambsquarters", "test": "Test C postemergence", "assay_type": "in vivo, Chenopodium album", "outline": "as §1"}, "wheat": {"tested_on": "wheat", "test": "Test A preemergence", "assay_type": "in vivo, Triticum aestivum", "conditions": "preemergence, 125 g ai/ha, visual injury approx. 10 days after treatment", "outline": "as §2"}, "ryegrass, Italian [1]": {"tested_on": "ryegrass, Italian", "test": "Test C preemergence", "assay_type": "in vivo, Lolium multiflorum", "outline": "as §1"}, "crabgrass, large": {"tested_on": "crabgrass, large", "test": "Test C preemergence", "assay_type": "in vivo, Digitaria sanguinalis", "outline": "as §1"}, "ducksalad": {"tested_on": "ducksalad", "test": "Test B flood", "assay_type": "in vivo, Heteranthera limosa", "conditions": "250 g ai/ha, visual rating on 0 to 100 scale (0 no effect, 100 complete control), 13 to 15 days", "outline": "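Visual ratings on a 0–100 scale, where 0 means no effect and 100 means complete control, were assigned by comparison with controls 13 to 15 days after treatment. Compounds went into paddy water over 2-leaf plants flooded to 3 cm.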"}, "waterhemp [2]": {"tested_on": "waterhemp", "test": "Test C preemergence", "assay_type": "in vivo, Amaranthus rudis", "outline": "as §1"}, "ryegrass, Italian [3]": {"tested_on": "ryegrass, Italian", "test": "Test C postemergence", "assay_type": "in vivo, Lolium multiflorum", "conditions": "postemergence", "outline": "as §1"}, "corn": {"tested_on": "corn", "test": "Test C postemergence", "assay_type": "in vivo, Zea mays", "outline": "as §1"}, "waterhemp [4]": {"tested_on": "waterhemp", "test": "Test C postemergence", "assay_type": "in vivo, Amaranthus rudis", "conditions": "postemergence", "outline": "as §1"}, "ragweed": {"tested_on": "ragweed", "test": "Test C preemergence", "assay_type": "in vivo, Ambrosia elation", "outline": "as §1"}, "foxtail, giant": {"tested_on": "foxtail, giant", "test": "Test C preemergence", "assay_type": "in vivo, Setaria faberii", "outline": "as §1"}, "[5]": {"conditions": "Preemergence, rate head not shown (block before 16 g ai/ha), scale 0 to 100"}, "[6]": {"conditions": "preemergence, 62 g ai/ha, scale 0 to 100 (0 no effect, 100 complete control), 13 to 15 days"}, "[7]": {"conditions": "preemergence, 125 g ai/ha, 13 to 15 days, scale 0 to 100, 0 = no effect, 100 = complete control"}, "[8]": {"conditions": "preemergence, 250 g ai/ha, scale 0 to 100, 0 is no effect, 100 is complete control"}, "[9]": {"conditions": "Postemergence, 31 g ai/ha, visually evaluated after 13 to 15 days"}, "[10]": {"conditions": "postemergence, 62 g ai/ha, scale 0 to 100"}, "[11]": {"conditions": "postemergence, 250 g ai/ha, scale 0 to 100 (0 no effect, 100 complete control)"}, "[12]": {"conditions": "postemergence, 125 g ai/ha, scale 0 to 100, 0 no effect, 100 complete control"}, "[13]": {"conditions": "250 g ai/ha, scale 0 to 100 (0 no effect, 100 complete control)"}},
  "data": [
    {"molecule": "CCc1cc(C(=O)NCC(F)(F)F)nn1Cc1ccnc(Br)c1", "note": "[Compound 224]", "values": [
      {"measurement": "Plant response rating, Nutsedge, Yellow", "setting": "nutsedge, yellow; [5]", "result": 85},
      {"measurement": "Nutsedge, Yellow plant response rating", "setting": "nutsedge, yellow; [6]", "result": 80},
      {"measurement": "Plant response rating, Nutsedge, Yellow", "setting": "nutsedge, yellow; [7]", "result": 70},
      {"measurement": "Nutsedge, Yellow plant response rating", "setting": "nutsedge, yellow; [8]", "result": 90},
      {"measurement": "Pigweed plant response rating", "setting": "pigweed; 125 g ai/ha, 0 to 100 scale, 0 no effect, 100 complete control", "result": 100},
      {"measurement": "Pigweed plant response rating", "setting": "pigweed; 500 g ai/ha, 0 to 100 scale (0 no effect, 100 complete control)", "result": 100},
      {"measurement": "Plant response rating (scale of 0 to 100 where 0 is no effect and 100 is complete control), Lambsquarters", "setting": "lambsquarters; [9]", "result": 35},
      {"measurement": "Lambsquarters plant response rating", "setting": "lambsquarters; [10]", "result": 40},
      {"measurement": "Plant response rating, Lambsquarters", "setting": "lambsquarters; [11]", "result": 60},
      {"measurement": "Plant response rating, Lambsquarters", "setting": "lambsquarters; [12]", "result": 45},
      {"measurement": "Wheat plant response rating (0 to 100 scale)", "setting": "wheat", "result": 30},
      {"measurement": "Plant response rating, Ryegrass, Italian", "setting": "ryegrass, Italian [1]; [5]", "result": 10},
      {"measurement": "Ryegrass, Italian plant response rating", "setting": "ryegrass, Italian [1]; [6]", "result": 60},
      {"measurement": "Plant response rating, Ryegrass, Italian", "setting": "ryegrass, Italian [1]; [7]", "result": 50},
      {"measurement": "Ryegrass, Italian plant response rating", "setting": "ryegrass, Italian [1]; [8]", "result": 30},
      {"measurement": "Plant response rating, Crabgrass, Large", "setting": "crabgrass, large; [5]", "result": 100},
      {"measurement": "Crabgrass, Large plant response rating", "setting": "crabgrass, large; [6]", "result": 100},
      {"measurement": "Plant response rating, Crabgrass, Large", "setting": "crabgrass, large; [7]", "result": 100},
      {"measurement": "Crabgrass, Large plant response rating", "setting": "crabgrass, large; [8]", "result": 100},
      {"measurement": "Plant response rating, Ducksalad", "setting": "ducksalad", "result": 75},
      {"measurement": "Plant response rating, Waterhemp", "setting": "waterhemp [2]; [5]", "result": 100},
      {"measurement": "Waterhemp plant response rating", "setting": "waterhemp [2]; [6]", "result": 100},
      {"measurement": "Plant response rating, Waterhemp", "setting": "waterhemp [2]; [7]", "result": 100},
      {"measurement": "Waterhemp plant response rating", "setting": "waterhemp [2]; [8]", "result": 100},
      {"measurement": "Plant response rating, Ryegrass, Italian", "setting": "ryegrass, Italian [3]; [13]", "result": 5},
      {"measurement": "Plant response rating, Ryegrass, Italian", "setting": "ryegrass, Italian [3]; 125 g ai/ha, scale 0 to 100, 0 no effect, 100 complete control", "result": 5},
      {"measurement": "Plant response rating (scale of 0 to 100 where 0 is no effect and 100 is complete control), Corn", "setting": "corn; [9]", "result": 5},
      {"measurement": "Corn plant response rating", "setting": "corn; [10]", "result": 5},
      {"measurement": "Plant response rating, Corn", "setting": "corn; [11]", "result": 10},
      {"measurement": "Plant response rating, Corn", "setting": "corn; [12]", "result": 10},
      {"measurement": "Plant response rating, Waterhemp", "setting": "waterhemp [4]; [13]", "result": 45},
      {"measurement": "Waterhemp plant response rating", "setting": "waterhemp [4]; scale 0 to 100", "result": 50},
      {"measurement": "Plant response rating, Ragweed", "setting": "ragweed; [5]", "result": 85},
      {"measurement": "Ragweed plant response rating", "setting": "ragweed; [6]", "result": 85},
      {"measurement": "Plant response rating, Ragweed", "setting": "ragweed; [7]", "result": 95},
      {"measurement": "Ragweed plant response rating", "setting": "ragweed; [8]", "result": 100},
      {"measurement": "Plant response rating, Foxtail, Giant", "setting": "foxtail, giant; [5]", "result": 95},
      {"measurement": "Foxtail, Giant plant response rating", "setting": "foxtail, giant; [6]", "result": 100},
      {"measurement": "Plant response rating, Foxtail, Giant", "setting": "foxtail, giant; [7]", "result": 100},
      {"measurement": "Foxtail, Giant plant response rating", "setting": "foxtail, giant; [8]", "result": 100}
    ]}
  ]
}
